Tests used:
SARS-CoV-2 replicon = assay: microbe, parasite or virus in culture; format: cell-based; conditions: Severe acute respiratory syndrome coronavirus 2, Huh-7
[1] = biological target: SARS-CoV-2 Papain-like (PLpro) protease (Severe acute respiratory syndrome coronavirus 2, UniProt P0DTD1); assay: SARS-CoV-2 Papain-like (PLpro) protease biochemical enzyme inhibition assay (ubiquitin-fluorophore substrate, Ub-R110); conditions: Ub-R110 substrate; run in duplicate; read-out: PLpro IC50

With `COC(=O)/C=C/CNC(=O)C(=O)NCc1ccccc1C(=O)NC1(c2cccc3ccccc23)CC1` [Example 4] the EC50 (SARS-CoV-2 replicon) was less than 1000 nM and the IC50 [1] was less than 100 nM.
`C[C@@H](NC(=O)c1ccccc1CNC(=O)C(=O)NCC#N)c1cccc2ccccc12` [Example 6] was tested, and the EC50 (SARS-CoV-2 replicon) was 1000 to 10000 nM and the IC50 [1] was less than 100 nM.
In the case of `COC(=O)C#CCCNC(=O)C(=O)NCc1ccccc1C(=O)N[C@H](C)c1cccc2ccccc12` [Example 8], the EC50 (SARS-CoV-2 replicon) is reported as less than 1000 nM and the IC50 [1] is reported as less than 100 nM.
For `C=CC(=O)NNC(=O)C(=O)NCc1ccccc1C(=O)N[C@H](C)c1cccc2ccccc12` [Example 22], the EC50 (SARS-CoV-2 replicon) was greater than 10000 nM and the IC50 [1] was 100 to 1000 nM.
`COC(=O)/C(C)=C/CNC(=O)C(=O)NCc1ccccc1C(=O)N[C@H](C)c1cccc2ccccc12` [Example 24] showed an EC50 (SARS-CoV-2 replicon) of less than 1000 nM and an IC50 [1] of less than 100 nM.
For `N#CCNC(=O)C(=O)NCc1ccccc1C(=O)NC1(c2cccc3ccccc23)CC1` [Example 25], the EC50 (SARS-CoV-2 replicon) was less than 1000 nM and the IC50 [1] was less than 100 nM.
With `COC(=O)/C=C/CNC(=O)C(=O)NCc1cccc(F)c1C(=O)N[C@H](C)c1cccc2ccccc12` [Example 28] the EC50 (SARS-CoV-2 replicon) was less than 1000 nM and the IC50 [1] was less than 100 nM.
In the case of `C[C@@H](NC(=O)c1c(F)cccc1CNC(=O)C(=O)NCC#N)c1cccc2ccccc12` [Example 29], the EC50 (SARS-CoV-2 replicon) is reported as 1000 to 10000 nM and the IC50 [1] is reported as less than 100 nM.
`CC(C#N)NC(=O)C(=O)NCc1ccccc1C(=O)NC1(c2cccc3ccccc23)CC1` (stereo not shown) [Example 33] gave an EC50 (SARS-CoV-2 replicon) greater than 10000 nM and an IC50 [1] of 100 to 1000 nM.
Compound `C#CCNC(=O)C(=O)NCc1ccc(C#N)cc1C(=O)NC1(c2ccc(F)c3ccccc23)CC1` [Example 53] has an EC50 (SARS-CoV-2 replicon) of less than 1000 nM and an IC50 [1] of less than 100 nM.
In the case of `N#CCNC(=O)C(=O)NCc1ccccc1C(=O)NC1(c2cccc3cc(F)ccc23)CC1` [Example 54], the EC50 (SARS-CoV-2 replicon) is reported as less than 1000 nM and the IC50 [1] is reported as less than 100 nM.
Compound `N#CCNC(=O)C(=O)NCc1ccc(C#N)cc1C(=O)NC1(c2ccc(F)c3ccccc23)CC1` [Example 55] has an EC50 (SARS-CoV-2 replicon) of 1000 to 10000 nM and an IC50 [1] of less than 100 nM.
For `C#CCNC(=O)C(=O)NCc1ccccc1C(=O)NC1(c2cccc3cc(F)ccc23)CC1` [Example 56], the EC50 (SARS-CoV-2 replicon) was less than 1000 nM and the IC50 [1] was less than 100 nM.
Work on `C#CCNC(=O)C(=O)NCc1ccccc1C(=O)NC1(c2cc(-c3cn(C4CC4)nn3)cc(C(F)(F)F)c2)CC1` [Example 59] yielded an EC50 (SARS-CoV-2 replicon) of less than 1000 nM and an IC50 [1] of less than 100 nM.
`C#CCNC(=O)C(=O)NCc1ccc(C(=O)N2CC(F)(F)C2)cc1C(=O)NC1(c2ccc(F)c3ccccc23)CC1` [Example 61] gave an EC50 (SARS-CoV-2 replicon) of less than 1000 nM and an IC50 [1] of less than 100 nM.
For `N#CCNC(=O)C(=O)NCc1ccc(C(=O)N2CC(F)(F)C2)cc1C(=O)NC1(c2ccc(F)c3ccccc23)CC1` [Example 62], the EC50 (SARS-CoV-2 replicon) was 1000 to 10000 nM and the IC50 [1] was less than 100 nM.
In the case of `C#CCNC(=O)C(=O)NCc1ccccc1C(=O)NC1(c2cc(C#C)cc(C(F)(F)F)c2)CC1` [Example 69], the EC50 (SARS-CoV-2 replicon) is reported as less than 1000 nM and the IC50 [1] is reported as less than 100 nM.
Compound `C#Cc1cc(C(F)(F)F)cc(C2(NC(=O)c3ccccc3CNC(=O)C(=O)NCC#N)CC2)c1` [Example 70] has an EC50 (SARS-CoV-2 replicon) of less than 1000 nM and an IC50 [1] of 100 to 1000 nM.
Compound `C#CCNC(=O)C(=O)NCc1ccccc1C(=O)NC1(c2cc(Cl)cc(-c3cnc(C(F)(F)F)nc3)c2)CC1` [Example 71] has an EC50 (SARS-CoV-2 replicon) of less than 1000 nM and an IC50 [1] of less than 100 nM.
For `C#CCNC(=O)C(=O)NCc1ccccc1C(=O)NC1(c2cc(Cl)cc(-c3cnc(C4CC4)nc3)c2)CC1` [Example 73], the EC50 (SARS-CoV-2 replicon) was less than 1000 nM and the IC50 [1] was less than 100 nM.
With `N#CCNC(=O)C(=O)NCc1ccccc1C(=O)NC1(c2cc(Cl)cc(-c3cnc(C4CC4)nc3)c2)CC1` [Example 74] the EC50 (SARS-CoV-2 replicon) was 1000 to 10000 nM and the IC50 [1] was less than 100 nM.
`C#CCNC(=O)C(=O)NCc1ccccc1C(=O)NC1(c2cc(Cl)cc(C(=O)N(C)c3ccc(F)cc3)c2)CC1` [Example 77] was tested, and the EC50 (SARS-CoV-2 replicon) was 1000 to 10000 nM and the IC50 [1] was less than 100 nM.
`CN(C(=O)c1cc(Cl)cc(C2(NC(=O)c3ccccc3CNC(=O)C(=O)NCC#Cc3nccs3)CC2)c1)c1ccc(F)cc1` [Example 79] gave an EC50 (SARS-CoV-2 replicon) of less than 1000 nM and an IC50 [1] of less than 100 nM.
Work on `O=C(NCC#Cc1nccs1)C(=O)NCc1ccccc1C(=O)NC1(c2cc(F)cc(-c3cnn(C(F)F)c3)c2)CC1` [Example 81] yielded an EC50 (SARS-CoV-2 replicon) of less than 1000 nM and an IC50 [1] of less than 100 nM.
With `O=C(NCC#Cc1nccs1)C(=O)NCc1ccccc1C(=O)NC1(c2cc(F)cc(C(=O)Nc3ccc(F)cc3F)c2)CC1` [Example 82] the EC50 (SARS-CoV-2 replicon) was less than 1000 nM and the IC50 [1] was less than 100 nM.
For `O=C(NCC#Cc1nccs1)C(=O)NCc1ccccc1C(=O)NC1(c2cc(Cl)cc(-c3cnc(C4CC4)nc3)c2)CC1` [Example 83], the EC50 (SARS-CoV-2 replicon) was less than 1000 nM and the IC50 [1] was less than 100 nM.
Work on `O=C(NCC#Cc1nccs1)C(=O)NCc1cccnc1C(=O)NC1(c2cc(F)cc(-c3cnn(C4CC4)c3)c2)CC1` [Example 84] yielded an EC50 (SARS-CoV-2 replicon) of less than 1000 nM and an IC50 [1] of less than 100 nM.
`Cc1cc(C#N)ccc1C#CCNC(=O)C(=O)NCc1ccccc1C(=O)NC1(c2ccc3ccccc3c2)CC1` [Example 85] showed an EC50 (SARS-CoV-2 replicon) of less than 1000 nM and an IC50 [1] of less than 100 nM.
Work on `N#Cc1ccc(C#CCNC(=O)C(=O)NCc2ccccc2C(=O)NC2(c3ccc4ccccc4c3)CC2)c(F)c1` [Example 86] yielded an EC50 (SARS-CoV-2 replicon) of less than 1000 nM and an IC50 [1] of less than 100 nM.
`N#Cc1cc(F)c(C#CCNC(=O)C(=O)NCc2ccccc2C(=O)NC2(c3ccc4ccccc4c3)CC2)c(F)c1` [Example 87] gave an EC50 (SARS-CoV-2 replicon) of less than 1000 nM and an IC50 [1] of less than 100 nM.
Work on `COc1cc(C#N)ccc1C#CCNC(=O)C(=O)NCc1ccccc1C(=O)NC1(c2ccc3ccccc3c2)CC1` [Example 88] yielded an EC50 (SARS-CoV-2 replicon) of less than 1000 nM and an IC50 [1] of less than 100 nM.
For `N#CCNC(=O)C(=O)NCc1ccccc1C(=O)NC1(c2cc(C(F)(F)F)nc3ccccc23)CC1` [Example 90], the EC50 (SARS-CoV-2 replicon) was 1000 to 10000 nM and the IC50 [1] was less than 100 nM.
Compound `N#Cc1ccccc1C#CCNC(=O)C(=O)NCc1ccccc1C(=O)NC1(c2ccc3ccccc3c2)CC1` [Example 94] has an EC50 (SARS-CoV-2 replicon) of less than 1000 nM and an IC50 [1] of less than 100 nM.
Work on `CC(C)[C@@H](C#Cc1nccs1)NC(=O)C(=O)NCc1ccccc1C(=O)NC1(c2ccc3nn(C)cc3c2)CC1` [Example 97] yielded an EC50 (SARS-CoV-2 replicon) of less than 1000 nM and an IC50 [1] of 100 to 1000 nM.
Work on `COC(=O)/C=C/CNC(=O)C(=O)NCc1c(F)cc(F)cc1C(=O)N[C@H](C)c1cccc2ccccc12` [Example 360] yielded an EC50 (SARS-CoV-2 replicon) of 1000 to 10000 nM.
`N#CN1CC[C@@H](C(=O)NCc2ccccc2C(=O)NC2(c3cc(Br)cc4ccccc34)CC2)C1` [Example 416] was tested, and the EC50 (SARS-CoV-2 replicon) was less than 1000 nM.
For `N#CN1CC[C@H](C(=O)NCc2ccccc2C(=O)NC2(c3cc(Br)cc4ccccc34)CC2)C1` [Example 417], the EC50 (SARS-CoV-2 replicon) was less than 1000 nM.
`NNC(=O)/C=C/CNC(=O)C(=O)NCc1ccccc1C(=O)NC1(c2cccc3ccccc23)CC1` [Example 553] was tested, and the IC50 [1] was 100 to 1000 nM.
`Cc1cccc(C)c1NC(=O)/C=C/CNC(=O)C(=O)NCc1ccccc1C(=O)NC1(c2cccc3ccccc23)CC1` [Example 562] was tested, and the IC50 [1] was greater than 10000 nM.
With `COCC(C)(C)NC(=O)/C=C/CNC(=O)C(=O)NCc1ccccc1C(=O)N[C@H](C)c1cccc2ccccc12` [Example 565] the IC50 [1] was 1000 to 10000 nM.
`O=C(NC/C=C/c1ccccn1)C(=O)NCc1ccccc1C(=O)NC1(c2ccc3ccccc3c2)CC1` [Example 578] was tested, and the IC50 [1] was 100 to 1000 nM.
`COc1cc(C2(NC(=O)c3ccccc3CNC(=O)C(=O)NC/C=C/c3cnccn3)CC2)cc2cn(C3CC3)nc12` [Example 579] gave an IC50 [1] of 100 to 1000 nM.
For `O=C(NC/C=C/c1cnccn1)C(=O)NCc1ccccc1C(=O)NC1(c2ccc3ccccc3c2)CC1` [Example 580], the IC50 [1] was 100 to 1000 nM.
`COc1cc(C2(NC(=O)c3ccccc3CNC(=O)C(=O)NC/C=C/c3ccccn3)CC2)cc2cn(C3CC3)nc12` [Example 581] was tested, and the IC50 [1] was 100 to 1000 nM.
`O=C(NC/C=C/c1nccs1)C(=O)NCc1ccccc1C(=O)NC1(c2ccc3ccccc3c2)CC1` [Example 583] showed an IC50 [1] of 100 to 1000 nM.

Source: US20240327334A1, “Covalent Inhibitors As Antiviral Agents” (Enanta Pharmaceuticals, Inc., priority 2022, published 2024)
